For 24 compounds, IC50 results are on record in patent US11987588B2, “Modulators of the beta-3 adrenergic receptor useful for the treatment or prevention of heart failure and disorders related thereto” (Arena Pharmaceuticals, Inc., priority 2017, dated 2024).

A word on the IC50: it is the concentration at which inhibition is half-maximal.

Beta-3 Adrenergic Receptor, sequence (P13945 whole entry, species assumed): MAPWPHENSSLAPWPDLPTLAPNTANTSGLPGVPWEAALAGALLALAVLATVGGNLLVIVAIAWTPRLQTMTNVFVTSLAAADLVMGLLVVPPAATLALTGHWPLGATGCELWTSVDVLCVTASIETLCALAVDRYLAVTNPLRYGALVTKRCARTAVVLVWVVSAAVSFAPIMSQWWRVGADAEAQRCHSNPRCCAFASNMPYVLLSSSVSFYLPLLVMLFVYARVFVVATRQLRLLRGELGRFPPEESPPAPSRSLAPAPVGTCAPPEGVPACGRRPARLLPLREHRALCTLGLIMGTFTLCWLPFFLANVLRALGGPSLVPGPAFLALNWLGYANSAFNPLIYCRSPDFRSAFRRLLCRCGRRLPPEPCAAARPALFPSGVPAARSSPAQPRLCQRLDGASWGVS

This assay concerns the target Beta-3 Adrenergic Receptor (Homo sapiens (Human), UniProt P13945). The assay can be described thus: Homogeneous Time-Resolved Fluorescence (HTRF) cAMP antagonist assay, IC50 determination. It is filed as cell-based. As to conditions: CHO-K1 cells stably expressing recombinant receptor, isoproterenol at EC90. An outline of the steps: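 CHO-K1 cells stably expressing the recombinant receptor were preincubated with compound (10-point, 5-fold dilutions; top final typically 10 or 100 μM) in PBS with 1 mM IBMX, then stimulated with isoproterenol at its EC90 for 1 h at room temperature. cAMP was read by HTRF against an on-plate standard curve.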
For the compound `CNS(=O)(=O)c1cccc(OC[C@@H](O)CNC2COC3(CCN(S(=O)(=O)c4cncc(-c5cnn(C)c5)c4)CC3)C2)c1` (stereo partly drawn) [Compound 342, 3-((2S)-2-hydroxy-3-(8-(5-(1-methyl-1H-pyrazol-4-yl)pyridin-3-ylsulfonyl)-1-oxa-8-azaspiro[4.5]decan-3-ylamino)propoxy)-N-methylbenzenesulfonamide], the IC50 is 42.6 nM.
For the compound `CNS(=O)(=O)c1cccc(OC[C@@H](O)CN[C@@H]2COC3(CCN(S(=O)(=O)c4ccc(OC)c(-c5ccc(C6(N)CC6)cc5)c4)CC3)C2)c1` [Compound 463, 3-((S)-3-((S)-8-(4′-(1-aminocyclopropyl)-6-methoxybiphenyl-3-ylsulfonyl)-1-oxa-8-azaspiro[4.5]decan-3-ylamino)-2-hydroxypropoxy)-N-methylbenzenesulfonamide], the IC50 was 24.3 nM.
The result for `CNS(=O)(=O)c1cccc(OC[C@@H](O)CN[C@H]2COC3(CCN(S(=O)(=O)c4cc(C)ccc4F)CC3)C2)c1` [Compound 269, 3-((S)-3-((R)-8-(2-fluoro-5-methylphenylsulfonyl)-1-oxa-8-azaspiro[4.5]decan-3-ylamino)-2-hydroxypropoxy)-N-methylbenzenesulfonamide] reads 24.7 nM.
As for `C[C@@H](NS(=O)(=O)c1cccc(OC[C@@H](O)CNC2COC3(CCN(S(=O)(=O)c4ccc5ccccc5c4)CC3)C2)c1)C(C)(C)C` (stereo partly drawn) [Compound 100, N—((R)-3,3-dimethylbutan-2-yl)-3-((2S)-2-hydroxy-3-(8-(naphthalen-2-ylsulfonyl)-1-oxa-8-azaspiro[4.5]decan-3-ylamino)propoxy)benzenesulfonamide], the IC50 is 256 nM.
The result for `CNS(=O)(=O)c1cccc(OC[C@@H](O)CNC2COC3(CCN(S(=O)(=O)c4ccc(C#N)cc4Cl)CC3)C2)c1` (stereo partly drawn) [Compound 157, 3-((2S)-3-(8-(2-chloro-4-cyanophenylsulfonyl)-1-oxa-8-azaspiro[4.5]decan-3-ylamino)-2-hydroxypropoxy)-N-methylbenzenesulfonamide] reads 26.4 nM.
Take `CNS(=O)(=O)c1cccc(OC[C@@H](O)CNC2COC3(CCN(S(=O)(=O)c4cccc(Oc5ccccc5)c4)CC3)C2)c1` (stereo partly drawn) [Compound 124, 3-((2S)-2-hydroxy-3-(8-(3-phenoxyphenylsulfonyl)-1-oxa-8-azaspiro[4.5]decan-3-ylamino)propoxy)-N-methylbenzenesulfonamide]: the IC50 was 36.2 nM.
Regarding `CCCn1cc(S(=O)(=O)N2CCC3(CC2)C[C@@H](NC[C@H](O)COc2cccc(S(=O)(=O)NC)c2)CO3)c(=O)c2ccccc21` [Compound 524, 3-((S)-2-hydroxy-3-((R)-8-(4-oxo-1-propyl-1,4-dihydroquinolin-3-ylsulfonyl)-1-oxa-8-azaspiro[4.5]decan-3-ylamino)propoxy)-N-methylbenzenesulfonamide], the concentration for half-maximal inhibition (IC50) stood at 87.2 nM.
Take `NS(=O)(=O)c1cccc(OC[C@@H](O)CN[C@H]2COC3(CCN(S(=O)(=O)c4cnc5ccccc5c4O)CC3)C2)c1` [Compound 548, 3-((S)-2-hydroxy-3-((R)-8-(4-hydroxyquinolin-3-ylsulfonyl)-1-oxa-8-azaspiro[4.5]decan-3-ylamino)propoxy)benzenesulfonamide]: the IC50 was determined as 14.3 nM.
As to `NS(=O)(=O)c1cccc(OC[C@@H](O)CN[C@H]2COC3(CCN(S(=O)(=O)c4cnc5cc[nH]c5c4)CC3)C2)c1` [Compound 532, 3-((S)-3-((R)-8-(1H-pyrrolo[3,2-b]pyridin-6-ylsulfonyl)-1-oxa-8-azaspiro[4.5]decan-3-ylamino)-2-hydroxypropoxy)benzenesulfonamide], the IC50 was found to be 12.7 nM.
For the compound `CN1CCOc2ncc(S(=O)(=O)N3CCC4(CC3)C[C@@H](NC[C@H](O)COc3cccc(S(=O)(=O)NCC#N)c3)CO4)cc21` [Compound 460, N-(cyanomethyl)-3-((S)-2-hydroxy-3-((R)-8-(1-methyl-2,3-dihydro-1H-pyrido[2,3-b][1,4]oxazin-7-ylsulfonyl)-1-oxa-8-azaspiro[4.5]decan-3-ylamino)propoxy)benzenesulfonamide], the IC50 turned out to be 3020 nM.
For `CNS(=O)(=O)c1cccc(OC[C@@H](O)CNC2COC3(CCN(S(=O)(=O)c4ccccc4S(C)(=O)=O)CC3)C2)c1` (stereo partly drawn) [Compound 43, 3-((2S)-2-hydroxy-3-(8-(2-(methylsulfonyl)phenylsulfonyl)-1-oxa-8-azaspiro[4.5]decan-3-ylamino)propoxy)-N-methylbenzenesulfonamide], the IC50 came to 74 nM.
The result for `CN(C)CCCNS(=O)(=O)c1cccc(OC[C@@H](O)CNC2COC3(CCN(S(=O)(=O)c4ccc5c(c4)CCCC5)CC3)C2)c1` (stereo partly drawn) [Compound 314, N-(3-(dimethylamino)propyl)-3-((2S)-2-hydroxy-3-(8-(5,6,7,8-tetrahydronaphthalen-2-ylsulfonyl)-1-oxa-8-azaspiro[4.5]decan-3-ylamino)propoxy)benzenesulfonamide] reads 716 nM; that for `CNS(=O)(=O)c1cccc(OC[C@@H](O)CNC2COC3(CCN(S(=O)(=O)c4ccc5c(c4)N(CC(C)C)CCO5)CC3)C2)c1` (stereo partly drawn) [Compound 349, 3-((2S)-2-hydroxy-3-(8-(4-isobutyl-3,4-dihydro-2H-benzo[b][1,4]oxazin-6-ylsulfonyl)-1-oxa-8-azaspiro[4.5]decan-3-ylamino)propoxy)-N-methylbenzenesulfonamide], 67.9 nM.
As for `CNS(=O)(=O)c1cccc(OC[C@@H](O)CN[C@H]2COC3(CCN(S(=O)(=O)c4cnc5ncn(C)c5c4)CC3)C2)c1` [Compound 523, 3-((S)-2-hydroxy-3-((R)-8-(1-methyl-1H-imidazo[4,5-b]pyridin-6-ylsulfonyl)-1-oxa-8-azaspiro[4.5]decan-3-ylamino)propoxy)-N-methylbenzenesulfonamide], the IC50 amounted to 273 nM.
The result for `CCCN1CCOc2ncc(S(=O)(=O)N3CCC4(CC3)C[C@@H](NC[C@H](O)COc3cccc(S(=O)(=O)NC)c3)CO4)cc21` [Compound 470, 3-((S)-2-hydroxy-3-((R)-8-(1-propyl-2,3-dihydro-1H-pyrido[2,3-b][1,4]oxazin-7-ylsulfonyl)-1-oxa-8-azaspiro[4.5]decan-3-ylamino)propoxy)-N-methylbenzenesulfonamide] reads 35.8 nM; that for `CN(C)S(=O)(=O)c1cccc(OC[C@@H](O)CNC2COC3(CCN(S(=O)(=O)c4cccc(-c5ccc(N)nc5)c4)CC3)C2)c1` (stereo partly drawn) [Compound 275, 3-((2S)-3-(8-(3-(6-aminopyridin-3-yl)phenylsulfonyl)-1-oxa-8-azaspiro[4.5]decan-3-ylamino)-2-hydroxypropoxy)-N,N-dimethylbenzenesulfonamide], 21.3 nM; that for `C[C@H](CO)NS(=O)(=O)c1cccc(OC[C@@H](O)CN[C@@H]2COC3(CCN(S(=O)(=O)c4cccc(-c5ccc(CN)cc5)c4)CC3)C2)c1` [Compound 424, 3-((S)-3-((S)-8-(4′-(aminomethyl)biphenyl-3-ylsulfonyl)-1-oxa-8-azaspiro[4.5]decan-3-ylamino)-2-hydroxypropoxy)-N—((R)-1-hydroxypropan-2-yl)benzenesulfonamide], 51.3 nM.
The result for `CNS(=O)(=O)c1cccc(OC[C@@H](O)CN[C@H]2COC3(CCN(S(=O)(=O)c4cnc5c(c4C)N(C)CCO5)CC3)C2)c1` [Compound 467, 3-((S)-3-((R)-8-(1,8-dimethyl-2,3-dihydro-1H-pyrido[2,3-b][1,4]oxazin-7-ylsulfonyl)-1-oxa-8-azaspiro[4.5]decan-3-ylamino)-2-hydroxypropoxy)-N-methylbenzenesulfonamide] reads 33.4 nM; that for `CCOc1nc2c(cc1S(=O)(=O)N1CCC3(CC1)CC(NC[C@H](O)COc1cccc(S(=O)(=O)NC)c1)CO3)N(C)CCO2` (stereo partly drawn) [Compound 401, 3-((2S)-3-(8-(6-ethoxy-1-methyl-2,3-dihydro-1H-pyrido[2,3-b][1,4]oxazin-7-ylsulfonyl)-1-oxa-8-azaspiro[4.5]decan-3-ylamino)-2-hydroxypropoxy)-N-methylbenzenesulfonamide], 25.3 nM.
The same measure for `COCCNS(=O)(=O)c1cccc(OC[C@@H](O)CN[C@H]2COC3(CCN(S(=O)(=O)c4cnc5c(c4)N(C)CCO5)CC3)C2)c1` [Compound 459, 3-((S)-2-hydroxy-3-((R)-8-(1-methyl-2,3-dihydro-1H-pyrido[2,3-b][1,4]oxazin-7-ylsulfonyl)-1-oxa-8-azaspiro[4.5]decan-3-ylamino)propoxy)-N-(2-methoxyethyl)benzenesulfonamide]: 160 nM; for `CNS(=O)(=O)c1cccc(OC[C@@H](O)CNC2COC3(CCN(S(=O)(=O)c4ccc5occc5c4)CC3)C2)c1` (stereo partly drawn) [Compound 331, 3-((2S)-3-(8-(benzofuran-5-ylsulfonyl)-1-oxa-8-azaspiro[4.5]decan-3-ylamino)-2-hydroxypropoxy)-N-methylbenzenesulfonamide]: 19.6 nM.
`CNS(=O)(=O)c1cccc(OC[C@@H](O)CNC2COC3(CCN(S(=O)(=O)Cc4ccccc4)CC3)C2)c1` (stereo partly drawn) [Compound 172, 3-((2S)-3-(8-(benzylsulfonyl)-1-oxa-8-azaspiro[4.5]decan-3-ylamino)-2-hydroxypropoxy)-N-methylbenzenesulfonamide]: the IC50 was found to be 78.9 nM.
Turning to `CCNS(=O)(=O)c1cccc(OC[C@@H](O)CNC2COC3(CCN(S(=O)(=O)c4cccc(-c5ccc(CN)cc5)c4)CC3)C2)c1` (stereo partly drawn) [Compound 210, 3-((2S)-3-(8-(4′-(aminomethyl)biphenyl-3-ylsulfonyl)-1-oxa-8-azaspiro[4.5]decan-3-ylamino)-2-hydroxypropoxy)-N-ethylbenzenesulfonamide], the IC50 came to 20.4 nM.
For the compound `CNS(=O)(=O)c1cccc(OC[C@@H](O)CN[C@H]2COC3(CCN(S(=O)(=O)c4cnc5ccccc5c4O)CC3)C2)c1` [Compound 541, 3-((S)-2-hydroxy-3-((R)-8-(4-hydroxyquinolin-3-ylsulfonyl)-1-oxa-8-azaspiro[4.5]decan-3-ylamino)propoxy)-N-methylbenzenesulfonamide], the IC50 was 13.4 nM.
